Experiments:
heavy menstrual bleeding [1] = settings: cited from earlier work
heavy menstrual bleeding [2] = settings: open label uncontrolled, 849 patients; cited from earlier work
[3] = Randomized single-dose 4-way crossover bioequivalence/bioavailability study, fasting; parameters: species or system human (healthy female volunteers); settings: female, human, in vivo, iv
women with menorrhagia [4] = test: Example VIII double-blind placebo-controlled clinical study, six treated menstrual periods
Description: (§1) This was a multi-center, double-blind, placebo-controlled, parallel-group study.
Menstrual blood loss (MBL) was assessed during the entire menstrual period by the alkaline hematin test (AHT) method. Measures from the Menorrhagia Instrument (FIG. 1) were also administered immediately after each menstrual period under investigation. Subjects reported large stains exceeding the capacity of sanitary protection (and other patient reported outcome [PRO] items) during the menstrual period in daily diaries.
For the Primary Endpoint, the objective reduction in menstrual blood loss (MBL) during the entire menstrual period as assessed by the AHT Method was assessed.
For the Secondary Endpoints, the Limitation in Social Leisure Activities (LSLA) and the Limitation in Physical Activities (LPA) scores from the Menorrhagia Instrument (MI measures #4 and #3, respectively) and the total number of large stains responder analysis during the menstrual period from subject diaries were assessed.
For the Secondary Endpoints, assessment of the following were included, Menstrual Blood Loss (MBL) assessment score (MI measure #1), Limitation in Work Outside or Inside the Home (LWH) score (MI measure #2), and subject assessment of meaningfulness score from the MI (Measure #6) (used for the MBL responder analysis).
(§2) The efficacy results were based on the modified ITT (mITT) populations.

women with menorrhagia [5] = test: Example VII double-blind placebo-controlled clinical study, three treated menstrual periods; settings: for proportion of responders (reduction in MBL and meaningful improvement, MI measure 6c): after first treated cycle, p<0.0001 vs placebo
Description: as §1
The primary objective of the study was to determine the efficacy of a 1.95 gm/day of tranexamic acid (650 mg orally three times daily, TID) and 3.9 gm/day of tranexamic acid (1.3 gm orally three times daily, TID) administered during menstruation for up to 5 days (maximum of 15 doses) to reduce menstrual blood loss in women with objective evidence of heavy menstrual bleeding.
The secondary objective of the study was to determine the improvement with administration of 1.95 gm/day or 3.9 gm/day of tranexamic acid in women with heavy menstrual bleeding in their symptoms including, Limitation in Social Leisure Activities (LSLA) and Limitation in Physical Activities (LPA) scores from the Menorrhagia Instrument Measures (FIG. 1). Further the objective was to determine the safety of the 1.95 gm/day and 3.9 gm/day of the modified release tranexamic acid formulation administered during menstruation.
All periods were evaluated for the secondary endpoints, and for safety of tranexamic acid at an oral dose of 1.3 gm or placebo administered three (3) times daily for up to five consecutive (5) days (maximum of 15 doses) during menstruation.
Menstrual blood loss (MBL) was assessed during the entire menstrual period by the alkaline hematin test (AHT) method. The Menorrhagia Instrument Measures (FIG. 1) were also administered immediately after each menstrual period under investigation. For the Primary Endpoint, the objective reduction in menstrual blood loss (MBL) during the entire menstrual period as assessed by the AHT Method was assessed.
For the Secondary Endpoints, the scores for Limitation in Social Leisure Activities (LSLA) and the scores for Limitation in Physical Activities (LPA) from the Menorrhagia Instrument Measures (MI), measures #4 and #3, respectively) were assessed.
For the Secondary Endpoints the data collected included at least; Menstrual Blood Loss (MBL) assessment score (MI measure 1), Limitation in Work Outside or Inside the Home (LWH) score (MI item 2), and subject assessment of meaningfulness score from the MI (measure 6) (used for the MBL responder analysis).
as §2

[6] = tested on: patients diagnosed with menorrhagia; test: Menorrhagia Instrument (MI) validation sub-study, treatment cohort; format: in vivo, human (women)
Description: The MI was evaluated in a sub population of patients enrolled in a clinical trial designed to assess the safety and efficacy of tranexamic acid at an oral dose of 3.9 g administered daily for up to 5 days during each menstrual period. Two groups of patients were used to assess the MI, one group of patients were those diagnosed with menorrhagia and undergoing treatment. The second group was an age matched normal group. The sub-study was designed: to collect sufficient quantitative data to support the construct-related validation of the MI measures; to collect sufficient quantitative data to support the assessment of meaningful/important change in blood loss to the women; to conduct a test/retest evaluation of the instrument, and to address the reliability of the MI measures.
A total of 262 women completed the MI. […] The MI measures 1-5 were administered at baseline and at the subsequent first and second non-treatment periods for the subjects in the normal cohort The MI measure 6 was administered and data collected, at Month 1 and Month 2. The Ruta Menorrhagia Questionnaire, SF-36 Health Survey and the MI were completed by the subject before visit procedures were performed. A subset of at least 50 subjects were asked to return to the study site 7 to 10 days after the baseline Visit but before the next menstrual period starts to complete the MI a second time.
A total of 177 patients were enrolled into the sub-study. […] The 149 patients remaining were intended to be age matched. The majority of patients in the study were in their late 30's or early 40's. Because of the difficulty of enrolling sufficient numbers of women with normal menstrual periods in this age bracket 18 evaluable patients were not age matched. A total of 131 evaluable patients were age matched. A sub-set of 80 evaluable patients participated in the test/retest segment of the validation. Of these patients 11 were evaluable but not age matched. Data from all 80 patients were used for statistical evaluation of the test/re-test correlations.
The following Measures were summarized and statistically analyzed: • MI measure1—Blood Loss Rating • MI measure 2—Limitation of Work Outside or Inside the Home • MI measure 3—Limitation of Physical Activities • MI measure 4—Limitation of Social or Leisure Activities • MI measure 6/6a/6b—Menstrual Blood Loss During Last Period • MI measure 6c—Meaningfulness of Change in Menstrual Blood Loss
The MI consisted of 4 individual measures (1-4) that were analyzed separately for validation. No summative scale was derived. […] Measures 6, 6a and 6b dealt with menstrual blood loss relative to the previous menstrual period. The answers to the measures in the subparts of measure 6, were combined to produce a 15 point rating scale. The scale values range from −7 to +7 with −7 representing a very great deal worse menstrual blood loss than the previous period, and +7 representing a very great deal better menstrual blood loss than the previous period. The midpoint (0) represents the perception of about the same menstrual blood loss as the previous period.
The ability to detect change required that values for the item or instrument change when the concept it measures changed. In order to measure the MI items ability to detect change, longitudinal data were evaluated focusing primarily on the changes from baseline to month 1. Differences in proportions and comparisons between treatment and normal groups were compared using chi-square statistics (the Stuart-Maxwell test testing marginal homogeneity for all categories simultaneously). […] The Cohen Effect Size was computed by taking the mean change in measure score (baseline to month 1) and dividing that by the standard deviation of mean baseline score.^2 ^2 Cohen, J. J. (1988). Statistical power analysis for the behavioral sciences (p. 8). Erlbaum: Hillsdale, N.J.

[7] = 3.9 g/day compared with placebo
[8] = treatment group, 3.9 g daily, score 1-5, n 126
[9] = treatment group, baseline to month 1
[10] = treatment group, Cohen effect size
[11] = women on treatment who reported a meaningful improvement

SMILES: NC[C@H]1CC[C@H](C(=O)O)CC1 [tranexamic acid]
- efficacy in the treatment of HMB (heavy menstrual bleeding [1]; doses of ˜4 g/day (typically 1 g every 6 hours), immediate-release): effective
- side effects (heavy menstrual bleeding [1]; doses of ˜4 g/day (typically 1 g every 6 hours)): few side effects
- reduction of heavy menstrual bleeding (heavy menstrual bleeding [1]; research from European countries): 40-50%
- women satisfied with the treatment (heavy menstrual bleeding [2]): 80%
- clearance [3]: 137 mL/min
- half-life [3]: 10.2 h
- LWH (MI measure #2) (women with menorrhagia [4]; [7]): significantly reduced
- subjects' assessment of MBL (MI measure #1) (women with menorrhagia [4]; [7]): significantly reduced
- mean LPA score, change from baseline (women with menorrhagia [4]; 3.9 g/day, MI measure 3): significant treatment-related reductions
- mean LSLA score, change from baseline (women with menorrhagia [4]; 3.9 g/day, MI measure 4): significant treatment-related reductions
- proportion of responders (reduction in MBL and meaningful improvement, MI measure #6c) (women with menorrhagia [4]; 3.9 g/day, after first treated cycle, p<0.0001 vs placebo): 65.4%
- regression slope of MBL response over six menstrual cycles (women with menorrhagia [4]; 3.9 g/day, p=0.615): −0.90 mL/cycle
- clinical relevance of mean reduction in menstrual blood loss (criteria: >50 mL; at least 36 mL meaningful) (women with menorrhagia [5]; 1.9 and 3.9 g/day): met both criteria for a clinically meaningful result
- proportion of responders (reduction in MBL and meaningful improvement, MI measure 6c) (women with menorrhagia [5]; 1.95 g/day): 58.3%
- LWH (MI measure 2) (women with menorrhagia [5]; [7]): significantly reduced
- subjects' assessment of MBL (MI item 1) (women with menorrhagia [5]; [7]): significantly reduced
- proportion of responders (reduction in MBL and meaningful improvement, MI measure 6c) (women with menorrhagia [5]; 3.9 g/day): 71.0%
- mean LPA score, change from baseline (women with menorrhagia [5]; Limitation in Physical Activities, MI measure 3): Significant treatment-related reductions
- mean LSLA score, change from baseline (women with menorrhagia [5]; Limitation in Social Leisure Activities, MI measure 4): Significant treatment-related reductions
- calculated effect size, range over the four MI items ([6]; treatment group): −0.9 to −1.2
- mean change in response from baseline to month 1, range over the four MI items ([6]; treatment group): −0.76 to −1.16
- MI Item 1 self-perceived blood loss, Month 1 mean ([6]; treatment group, 3.9 g daily oral up to 5 days, score 1-4, n 126): 2.49
- MI Item 2 limit you in your work, Month 1 mean [6, 8]: 2.12
- MI Item 3 limit you in your physical activities, Month 1 mean [6, 8]: 2.13
- MI Item 4 limit you in your social/leisure activities, Month 1 mean [6, 8]: 2.00
- MI Item 1 self-perceived blood loss, mean change [6, 9]: −0.76
- MI Item 2 limit you in your work, mean change [6, 9]: −0.93
- MI Item 3 limit you in your physical activities, mean change [6, 9]: −1.16
- MI Item 4 limit you in your social/leisure activities, mean change [6, 9]: −1.06
- women on treatment who reported a meaningful improvement ([6]; treatment group, month 1, MI measure 6/6c): 78.6%
- MI Item 2 limit you in your work, Effect Size [6, 10]: −0.939
- MI Item 3 limit you in your physical activities, Effect Size [6, 10]: −1.221
- MI Item 4 limit you in your social/leisure activities, Effect Size [6, 10]: −1.000
- MI Item 1 self-perceived blood loss, Effect Size ([6]; treatment group, Cohen effect size, mean change / SD of baseline): −1.226
- improvement in MI item 3 (physical activities) [6, 11]: 1.29
- improvement in MI item 4 (social/leisure activities) [6, 11]: 1.17

— patent US20100280117A1 (Xanodyne Pharmaceuticals, Inc., priority 2009, published 2010)
